{"source": "patent US20080089936A1", "about": "“PROLONGED RELEASE FORMULATION OF ACTIVE PRINCIPLES HAVING A PH-DEPENDENT SOLUBILITY” (SANOFI-AVENTIS, priority 2005, published 2008)", "origin": "cited, not measured here", "conditions": "hypnotic agent, oral", "data": [{"compound": "Cc1ccc(-c2nc3ccc(C)cn3c2CC(=O)N(C)C)cc1", "note": "[zolpidem]", "values": [{"measurement": "duration of action", "result": "up to 6 hours"}]}]}
